Experiments:
weeds [1] = assay: Post-emergence test, summary on weeds; type: in vivo; details: result in words
Experimental: (§1) Solvent: 5 parts by weight of acetone
(§2) Emulsifier: 1 part by weight of alkylaryl polyglycol ether
(§3) To produce a suitable preparation of active compound, 1 part by weight of active compound is mixed with the stated amount of solvent, the stated amount of emulsifier is added and the concentrate is diluted with water to the desired concentration.
(§4) Test plants having a height of 5-15 cm are sprayed with the preparation of active compound such that the particular amounts of active compound desired are applied per unit area. The concentration of the spray liquor is chosen so that the particular amounts of active compound desired are applied in 1000 l of water/ha.
(§5) After three weeks, the degree of damage to the plants is rated in % damage in comparison with the development of the untreated control.
(§6) 0%=no effect (like untreated control)

Setaria [2] = assay: Pre-emergence test/greenhouse; type: in vivo; details: 1000 g of ai./ha, rated after three weeks vs untreated control, 0%=no effect, 100%=total destruction
Experimental: (§7) Pre-emergence Test Solvent: 5 parts by weight of acetone Emulsifier: 1 part by weight of alkylaryl polyglycol ether To produce a suitable preparation of active compound, 1 part by weight of active compound is mixed with the stated amount of solvent, the stated amount of emulsifier is added and the concentrate is diluted with water to the desired concentration. Seeds of the test plants are sown in normal soil. After about 24 hours, the soil is sprayed with the preparation of active compound such that the particular amounts of active compound desired are applied per unit area. The concentration of the spray liquor is chosen so that the particular amounts of active compound desired are applied in 1000 l of water/ha. After three weeks, the degree of damage to the plants is rated in % damage in comparison with the development of the untreated control. The figures denote: 0%=no effect (like untreated control) 100%=total destruction

Galium = assay: Pre-emergence test/greenhouse; type: in vivo; details: 1000 g of ai./ha, rated after three weeks vs untreated control, 0%=no effect, 100%=total destruction
Experimental: as §7

Maize [3] = assay: Pre-emergence test/greenhouse; type: in vivo; details: for degree of damage to the plants, Maize: pre-emergence, 1000 g of ai./ha, rated after three weeks vs untreated control, 0%=no effect, 100%=total destruction; for tolerance by crop plants, such as, for example, maize: pre-emergence test, result in words
Experimental: as §7

Amaranthus [4] = assay: Pre-emergence test/greenhouse; type: in vivo; details: 1000 g of ai./ha, rated after three weeks vs untreated control, 0%=no effect, 100%=total destruction
Experimental: as §7

Sinapis [5] = assay: Pre-emergence test/greenhouse; type: in vivo; details: 1000 g of ai./ha, rated after three weeks vs untreated control, 0%=no effect, 100%=total destruction
Experimental: as §7

Setaria [6] = assay: Post-emergence test/greenhouse; type: in vivo; details: 504 h, 1000 g of ai./ha, plants 5-15 cm sprayed, rated after three weeks vs untreated control, 0%=no effect, 100%=total destruction, read-out: degree of damage to the plants, Setaria
Experimental: as §1, §2, §3, §4, §5, §6

Abutilon = assay: Post-emergence test/greenhouse; type: in vivo; details: 504 h, 1000 g of ai./ha, plants 5-15 cm sprayed, rated after three weeks vs untreated control, 0%=no effect, 100%=total destruction, read-out: degree of damage to the plants, Abutilon
Experimental: as §1, §2, §3, §4, §5, §6

Amaranthus [7] = assay: Post-emergence test/greenhouse; type: in vivo; details: 504 h, 1000 g of ai./ha, plants 5-15 cm sprayed, rated after three weeks vs untreated control, 0%=no effect, 100%=total destruction, read-out: degree of damage to the plants, Amaranthus
Experimental: as §1, §2, §3, §4, §5, §6

Sinapis [8] = assay: Post-emergence test/greenhouse; type: in vivo; details: 504 h, 1000 g of ai./ha, plants 5-15 cm sprayed, rated after three weeks vs untreated control, 0%=no effect, 100%=total destruction, read-out: degree of damage to the plants, Sinapis
Experimental: as §1, §2, §3, §4, §5, §6

Maize [9] = assay: Post-emergence test/greenhouse; type: in vivo; details: Zea mays, 504 h, 1000 g of ai./ha, plants 5-15 cm sprayed, rated after three weeks vs untreated control, 0%=no effect, 100%=total destruction, read-out: degree of damage to the plants, Maize
Experimental: as §1, §2, §3, §4, §5, §6

Xanthium = assay: Post-emergence test/greenhouse; type: in vivo; details: 1000 g of ai./ha, plants 5-15 cm sprayed, rated after three weeks vs untreated control, 0%=no effect, 100%=total destruction
Experimental: as §1, §2, §3, §4, §5, §6

weeds [10] = assay: Pre-emergence test, summary on weeds; type: in vivo; details: result in words
Experimental: as §7

SMILES	action against weeds (weeds [1])	pest or weed control at 1000 g/ha (Setaria [6]) [%]	pest or weed control at 1000 g/ha (Abutilon) [%]	pest or weed control at 1000 g/ha (Amaranthus [7]) [%]	pest or weed control at 1000 g/ha (Sinapis [8]) [%]	plant injury at 1000 g/ha (Maize [9]) [%]	other results
CCC(Nc1nc(NC(C)=O)nc(C(C)Cl)n1)c1cccs1 (stereo not shown) [Example 21]	strong action	–	–	–	–	–	–
CCC(Nc1nc(NC(C)=O)nc(C(C)F)n1)c1cccs1 (stereo not shown) [drawing 224]	–	–	–	–	–	–	degree of damage to the plants, Setaria (Setaria [2]): 100%; degree of damage to the plants, Galium (Galium): 100%; degree of damage to the plants, Maize (Maize [3]): 0%; degree of damage to the plants, Amaranthus (Amaranthus [4]): 95%; degree of damage to the plants, Sinapis (Sinapis [5]): 100%
CC(Nc1nc(N)nc(C(Cl)Cl)n1)c1cccs1 (stereo not shown) [drawing 234]	–	90	100	100	100	–	–
CCC(Nc1nc(N)nc(C(C)F)n1)c1cccs1 (stereo not shown) [drawing 223]	–	–	–	–	–	–	degree of damage to the plants, Setaria (Setaria [2]): 90%; degree of damage to the plants, Galium (Galium): 100%; degree of damage to the plants, Maize (Maize [3]): 0%; degree of damage to the plants, Amaranthus (Amaranthus [4]): 100%
CCC(Nc1nc(NC(C)=O)nc(C(Cl)Cl)n1)c1cccs1 (stereo not shown) [Example 20]	strong action	–	–	–	–	–	melting point: 131 °C
CCC(Nc1nc(N)nc(C(Cl)Cl)n1)c1cccs1 (stereo not shown) [Example 13]	strong action	–	–	–	–	–	–
CCC(Nc1nc(NC(C)=O)nc(C(C)F)n1)c1cccs1 (stereo not shown) [drawing 235]	–	100	100	100	100	–	–
CCC(Nc1nc(N)nc(C(C)Cl)n1)c1cccs1 (stereo not shown) [drawing 228]	–	100	100	100	100	30	–
CCC(Nc1nc(N)nc(C(Cl)Cl)n1)c1cccs1 (stereo not shown) [drawing 237]	–	100	–	100	100	10	degree of damage to the plants, Xanthium (Xanthium): 80%
CC(Cl)c1nc(N)nc(NC(C)c2cccs2)n1 (stereo not shown) [Example 6]	strong action	–	–	–	–	–	melting point: 125 °C
CCc1nc(NC(C)=O)nc(NC(CC)c2cccs2)n1 (stereo not shown) [drawing 231]	–	100	100	100	100	20	–
CC(Cl)c1nc(N)nc(NC(C)c2cccs2)n1 (stereo not shown) [drawing 236]	–	–	100	100	–	0	degree of damage to the plants, Xanthium (Xanthium): 100%
CCc1nc(NC(C)=O)nc(NC(CC)c2cccs2)n1 (stereo not shown) [Example 18]	strong action	–	–	–	–	–	–
CCC(Nc1nc(N)nc(C(C)F)n1)c1cccs1 (stereo not shown) [drawing 229]	–	100	100	100	100	0	–
CCC(Nc1nc(N)nc(C(C)F)n1)c1cccs1 (stereo not shown) [Example 15]	strong action	–	–	–	–	–	tolerance by crop plants, such as, for example, maize (Maize [3]): tolerated very well; action against weeds (weeds [10]): strong action
CCc1nc(N)nc(NC(CC)c2cccs2)n1 (stereo not shown) [drawing 227]	–	100	100	100	100	30	–
CCC(Nc1nc(NC(C)=O)nc(C(C)F)n1)c1cccs1 (stereo not shown) [Example 22]	strong action	–	–	–	–	–	tolerance by crop plants, such as, for example, maize (Maize [3]): tolerated very well; action against weeds (weeds [10]): strong action
CCC(Nc1nc(NC(C)=O)nc(C(C)(Cl)Cl)n1)c1cccs1 (stereo not shown) [Example 24]	strong action	–	–	–	–	–	melting point: 113 °C
CCC(Nc1nc(NC(C)=O)nc(C(C)Cl)n1)c1cccs1 (stereo not shown) [drawing 233]	–	100	100	100	100	0	–
CCC(Nc1nc(N)nc(C(F)C(F)(F)F)n1)c1cccs1 (stereo not shown) [drawing 230]	–	100	100	100	100	10	–
CCc1nc(N)nc(NC(C)c2cccs2)n1 (stereo not shown) [drawing 225]	–	–	100	100	100	30	–
CCc1nc(NC(C)=O)nc(NC(C)c2cccs2)n1 (stereo not shown) [Example 2, 2-acetylamino-4-ethyl-6-(1-thien-2-yl-ethyl-amino)-1,3,5-triazine]	strong action	–	–	–	–	–	melting point: 153 °C
CCc1nc(N)nc(NC(C)c2cccs2)n1 (stereo not shown) [Example 1, 2-amino-4-ethyl-6-(1-thien-2-yl-ethylamino)-1,3,5-triazine]	strong action	–	–	–	–	–	–
CCC(Nc1nc(N)nc(C(F)C(F)(F)F)n1)c1cccs1 (stereo not shown) [Example 16]	strong action	–	–	–	–	–	–
CC(Nc1nc(N)nc(C(Cl)Cl)n1)c1cccs1 (stereo not shown) [Example 5]	strong action	–	–	–	–	–	melting point: 135 °C
CCC(Nc1nc(N)nc(C(C)Cl)n1)c1cccs1 (stereo not shown) [Example 14]	strong action	–	–	–	–	–	–
CCC(Nc1nc(NC(C)=O)nc(C(Cl)Cl)n1)c1cccs1 (stereo not shown) [drawing 232]	–	100	100	100	100	0	–
CCC(Nc1nc(NC(C)=O)nc(C(C)(Cl)Cl)n1)c1cccs1 (stereo not shown) [drawing 238]	–	100	–	100	100	–	degree of damage to the plants, Xanthium (Xanthium): 100%
CCc1nc(N)nc(NC(CC)c2cccs2)n1 (stereo not shown) [Example 11]	strong action	–	–	–	–	–	–
CCc1nc(NC(C)=O)nc(NC(C)c2cccs2)n1 (stereo not shown) [drawing 226]	–	90	100	100	100	0	–

Source: patent publication US6348435B1, “Substituted 2,4-diamino-1,3,5-triazine and their use as herbicides” (Bayer Aktiengesellschaft, priority 1997, dated 2002)
